Assay results published in US10562887B2, “Triazolones and tetrazolones as inhibitors of ROCK” (BRISTOL-MYERS SQUIBB COMPANY, priority 2016, dated 2020).

Target: ROCK2 (Homo sapiens (Human), UniProt O75116)
Assay: ROCK2 assay (peptide phosphorylation, LABCHIP 3000 Reader)
Format: biochemical
Conditions: 5 μM ATP, 1.5 μM peptide substrate
Outline: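 Human ROCK2 reaction in 20 mM HEPES pH 7.5, 20 mM MgCl2, 0.015% Brij-35, 4 mM DTT, with 5 μM ATP and 1.5 μM FITC-labelled peptide, DMSO <2%. Stopped with EDTA; phosphorylated and unphosphorylated peptide separated by microfluidic mobility shift. IC50 from dose-response curve fit.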

ROCK2, sequence (O75116 whole entry, species assumed): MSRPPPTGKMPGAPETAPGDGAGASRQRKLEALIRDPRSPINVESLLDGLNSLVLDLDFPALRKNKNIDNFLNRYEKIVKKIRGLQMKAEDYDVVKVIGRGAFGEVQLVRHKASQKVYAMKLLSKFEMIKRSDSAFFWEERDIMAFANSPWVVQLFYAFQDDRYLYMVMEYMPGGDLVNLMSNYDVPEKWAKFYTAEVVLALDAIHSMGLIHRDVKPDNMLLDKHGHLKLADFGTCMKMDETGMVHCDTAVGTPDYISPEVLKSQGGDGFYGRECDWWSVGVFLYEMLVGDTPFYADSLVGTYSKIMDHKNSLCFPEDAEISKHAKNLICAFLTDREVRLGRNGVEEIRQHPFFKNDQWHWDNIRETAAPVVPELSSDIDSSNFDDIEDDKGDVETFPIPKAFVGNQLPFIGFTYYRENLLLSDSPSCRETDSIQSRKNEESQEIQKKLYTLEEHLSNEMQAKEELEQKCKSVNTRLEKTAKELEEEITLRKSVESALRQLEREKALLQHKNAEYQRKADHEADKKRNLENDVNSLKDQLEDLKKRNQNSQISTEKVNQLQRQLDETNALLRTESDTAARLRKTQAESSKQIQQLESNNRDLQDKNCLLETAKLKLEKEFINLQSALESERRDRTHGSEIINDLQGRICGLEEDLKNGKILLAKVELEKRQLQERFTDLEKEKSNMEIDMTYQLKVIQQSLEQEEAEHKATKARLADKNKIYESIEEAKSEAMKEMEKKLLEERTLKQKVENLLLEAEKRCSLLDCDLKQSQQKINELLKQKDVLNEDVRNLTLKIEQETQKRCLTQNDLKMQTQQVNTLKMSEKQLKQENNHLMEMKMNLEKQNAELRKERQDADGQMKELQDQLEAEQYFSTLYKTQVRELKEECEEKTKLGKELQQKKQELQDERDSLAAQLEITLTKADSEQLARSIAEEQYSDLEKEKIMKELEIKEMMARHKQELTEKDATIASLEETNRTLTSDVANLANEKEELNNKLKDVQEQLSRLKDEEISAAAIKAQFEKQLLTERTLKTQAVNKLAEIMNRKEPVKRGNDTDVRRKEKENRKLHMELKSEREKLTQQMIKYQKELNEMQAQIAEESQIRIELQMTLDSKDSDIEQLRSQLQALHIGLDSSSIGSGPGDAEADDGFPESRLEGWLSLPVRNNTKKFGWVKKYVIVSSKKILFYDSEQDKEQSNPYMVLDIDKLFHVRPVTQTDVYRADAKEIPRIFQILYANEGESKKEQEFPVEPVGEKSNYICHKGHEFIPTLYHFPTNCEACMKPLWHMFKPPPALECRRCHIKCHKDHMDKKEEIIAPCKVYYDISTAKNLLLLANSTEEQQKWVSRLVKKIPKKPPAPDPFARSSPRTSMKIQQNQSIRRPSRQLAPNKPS

| IC50 [nM] | Compound |
| --- | --- |
| 5 to 50 | CCc1cc(-n2nc(C)n(Cc3cc(F)cc(OC)c3)c2=O)ccc1-c1cn[nH]c1 [Example 115, 1-(3-ethyl-4-(1H-pyrazol-4-yl)phenyl)-4-(3-fluoro-5-methoxybenzyl)-3-methyl-1H-1,2,4-triazol-5(4H)-one] |
| 250 to 2000 | COc1cc(-n2c(C)nn(Cc3ccccc3)c2=O)ccc1-c1cn[nH]c1 [Example 60, 1-benzyl-4-(3-methoxy-4-(1H-pyrazol-4-yl)phenyl)-3-methyl-1H-1,2,4-triazol-5(4H)-one] |
| 5 to 50 | CCc1cc(-n2nc(C)n(Cc3cccc(F)c3)c2=O)ccc1-c1cn[nH]c1 [Example 106, 1-(3-ethyl-4-(1H-pyrazol-4-yl)phenyl)-4-(3-fluorobenzyl)-3-methyl-1H-1,2,4-triazol-5(4H)-one] |
| 50 to 250 | Cc1nn(-c2ccc(-c3cn[nH]c3)cc2)c(=O)n1Cc1c(F)cccc1F [Example 104, 1-(4-(1H-pyrazol-4-yl)phenyl)-4-(2,6-difluorobenzyl)-3-methyl-1H-1,2,4-triazol-5(4H)-one] |
| 50 to 250 | Cc1nn(-c2ccc(-c3cn[nH]c3)cc2)c(=O)n1Cc1cccc(OC(F)F)c1 [Example 102, 1-(4-(1H-pyrazol-4-yl)phenyl)-4-(3-(difluoromethoxy)benzyl)-3-methyl-1H-1,2,4-triazol-5(4H)-one] |
| 5 to 50 | COc1cc(F)cc(Cn2c(CNC(C)CO)nn(-c3ccc(-c4cn[nH]c4)cc3)c2=O)c1 (stereo not shown) [Example 153, 1-(4-(1H-pyrazol-4-yl)phenyl)-4-(3-fluoro-5-methoxybenzyl)-3-(((1-hydroxypropan-2-yl)amino)methyl)-1H-1,2,4-triazol-5(4H)-one] |
| 250 to 2000 | CCc1cc(-n2nc(C)n(Cc3ccc(F)cc3)c2=O)ccc1-c1cn[nH]c1 [Example 114, 1-(3-ethyl-4-(1H-pyrazol-4-yl)phenyl)-4-(4-fluorobenzyl)-3-methyl-1H-1,2,4-triazol-5(4H)-one] |
| 5 to 50 | Cc1nn(-c2ccc(-c3cn[nH]c3)cc2)c(=O)n1Cc1ccccc1 [Example 79, 1-(4-(1H-pyrazol-4-yl)phenyl)-4-benzyl-3-methyl-1H-1,2,4-triazol-5(4H)-one] |
| 50 to 250 | CCc1cc(-n2nc(C)n(Cc3cc(F)ccc3F)c2=O)ccc1-c1cn[nH]c1 [Example 107, 4-(2,5-difluorobenzyl)-1-(3-ethyl-4-(1H-pyrazol-4-yl)phenyl)-3-methyl-1H-1,2,4-triazol-5(4H)-one] |
| 5 to 50 | COc1cc(-n2nc(C)n(Cc3cccc(OC(F)F)c3)c2=O)ccc1-c1cn[nH]c1 [Example 100, 4-(3-(difluoromethoxy)benzyl)-1-(3-methoxy-4-(1H-pyrazol-4-yl)phenyl)-3-methyl-1H-1,2,4-triazol-5(4H)-one] |
| 5 to 50 | COc1cc(Cn2c(CO)nn(-c3ccc(-c4cn[nH]c4)cc3)c2=O)ccc1F [Example 158, 1-(4-(1H-pyrazol-4-yl)phenyl)-4-(4-fluoro-3-methoxybenzyl)-3-(hydroxymethyl)-1H-1,2,4-triazol-5(4H)-one] |
| < 5 | COc1cccc(Cn2c(C(C)(C)O)nn(-c3ccc(-c4cn[nH]c4)cc3)c2=O)c1 [Example 134, 1-(4-(1H-pyrazol-4-yl)phenyl)-3-(2-hydroxypropan-2-yl)-4-(3-methoxybenzyl)-1H-1,2,4-triazol-5(4H)-one] |
| 5 to 50 | COc1cc(-n2ncn(Cc3cccc(OC(F)F)c3)c2=O)ccc1-c1cn[nH]c1 [Example 37, 4-(3-(difluoromethoxy)benzyl)-1-(3-methoxy-4-(1H-pyrazol-4-yl)phenyl)-1H-1,2,4-triazol-5(4H)-one] |
| 5 to 50 | COc1cc(F)cc(Cn2c(CN3CCC(O)C3)nn(-c3ccc(-c4cn[nH]c4)cc3)c2=O)c1 (stereo not shown) [Example 155, 1-(4-(1H-pyrazol-4-yl)phenyl)-4-(3-fluoro-5-methoxybenzyl)-3-((3-hydroxypyrrolidin-1-yl)methyl)-1H-1,2,4-triazol-5(4H)-one] |
| 5 to 50 | COc1cc(-n2ncn(Cc3c(F)cccc3F)c2=O)ccc1-c1cn[nH]c1 [Example 39, 4-(2,6-difluorobenzyl)-1-(3-methoxy-4-(1H-pyrazol-4-yl)phenyl)-1H-1,2,4-triazol-5(4H)-one] |

The remaining lines, values behind:

| Compound | IC50 [nM] |
| --- | --- |
| COc1cc(-c2cn[nH]c2)ccc1-n1cnn(Cc2cccc(F)c2)c1=O [Example 12, 1-(3-fluorobenzyl)-4-(2-methoxy-4-(1H-pyrazol-4-yl)phenyl)-1H-1,2,4-triazol-5(4H)-one] | 50 to 250 |
| CC(C)(O)c1nn(-c2ccc(-c3cn[nH]c3)cc2)c(=O)n1Cc1ccccc1 [Example 133, 1-(4-(1H-pyrazol-4-yl)phenyl)-4-benzyl-3-(2-hydroxypropan-2-yl)-1H-1,2,4-triazol-5(4H)-one] | 5 to 50 |
| O=c1n(-c2ccc(-c3cn[nH]c3)cc2)nc(CO)n1Cc1ccccc1 [Example 126, 1-(4-(1H-pyrazol-4-yl)phenyl)-4-benzyl-3-(hydroxymethyl)-1H-1,2,4-triazol-5(4H)-one] | 5 to 50 |
| CC(C)(O)c1nn(-c2ccc(-c3cn[nH]c3)cc2)c(=O)n1Cc1c(F)cccc1F [Example 138, 1-(4-(1H-pyrazol-4-yl)phenyl)-4-(2,6-difluorobenzyl)-3-(2-hydroxypropan-2-yl)-1H-1,2,4-triazol-5(4H)-one] | 50 to 250 |
| N#Cc1cccc(Cn2c(CO)nn(-c3ccc(-c4cn[nH]c4)cc3)c2=O)c1 [Example 132, 3-((1-(4-(1H-pyrazol-4-yl)phenyl)-3-(hydroxymethyl)-5-oxo-1H-1,2,4-triazol-4(5H)-yl)methyl)benzonitrile] | 50 to 250 |
| Cc1nn(Cc2cccc(F)c2)c(=O)n1-c1ccc(-c2cn[nH]c2)cc1 [Example 70, 4-(4-(1H-pyrazol-4-yl)phenyl)-1-(3-fluorobenzyl)-3-methyl-1H-1,2,4-triazol-5(4H)-one] | 250 to 2000 |
| COc1cc(-c2cn[nH]c2)ccc1-n1c(C)nn(C(C)c2ccccc2)c1=O (stereo not shown) [Example 75, 4-(2-methoxy-4-(1H-pyrazol-4-yl)phenyl)-3-methyl-1-(1-phenylethyl)-1H-1,2,4-triazol-5(4H)-one] | 250 to 2000 |
| O=c1n(-c2ccc(-c3cn[nH]c3)cc2)cnn1Cc1cc(F)ccc1F [Example 4, 4-(4-(1H-pyrazol-4-yl)phenyl)-1-(2,5-difluorobenzyl)-1H-1,2,4-triazol-5(4H)-one] | 250 to 2000 |
| Cc1nn(-c2ccc(-c3cn[nH]c3)cc2)c(=O)n1C(C)c1ccccc1 (stereo not shown) [Example 84, 1-(4-(1H-pyrazol-4-yl)phenyl)-3-methyl-4-(1-phenylethyl)-1H-1,2,4-triazol-5(4H)-one] | 50 to 250 |
| Cc1nn(CCc2ccccc2)c(=O)n1-c1ccc(-c2cn[nH]c2)cc1 [Example 67, 4-(4-(1H-pyrazol-4-yl)phenyl)-3-methyl-1-phenethyl-1H-1,2,4-triazol-5(4H)-one] | 250 to 2000 |
| COc1cc(-n2c(C)nn(CCc3ccccc3)c2=O)ccc1-c1cn[nH]c1 [Example 66, 4-(3-methoxy-4-(1H-pyrazol-4-yl)phenyl)-3-methyl-1-phenethyl-1H-1,2,4-triazol-5(4H)-one] | 50 to 250 |
| COc1cccc(Cn2cnn(-c3ccc(-c4ncnc5[nH]ccc45)cc3)c2=O)c1 [Example 163, 1-(4-(7H-pyrrolo[2,3-d]pyrimidin-4-yl)phenyl)-4-(3-methoxybenzyl)-1H-1,2,4-triazol-5(4H)-one] | 50 to 250 |
| COc1cccc(Cn2cnn(-c3ccc(-c4cn[nH]c4)cc3)c2=O)c1 [Example 18, 1-(4-(1H-pyrazol-4-yl)phenyl)-4-(3-methoxybenzyl)-1H-1,2,4-triazol-5(4H)-one] | < 5 |
